Source: ChEMBL document CHEMBL1201862, “PubChem BioAssay data set” (2004)
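Test compounds were applied to cells in 96-well plates for 48 hours at 5 doses. Here, GI50 denotes the concentration required for 50% inhibition of growth.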 The source made the active and inactive calls. Cut-off read from the data, not from the text of the source: active = GI50 up to about 1.1 µM and inactive = higher.

Tests used:
Assay in all cases: inhibition of tumour cell growth, NCI panel, 48 h
[1] = tested on: 786-0
[2] = tested on: A498
[3] = tested on: A549
[4] = tested on: ACHN
[5] = tested on: CAKI-1
[6] = tested on: CCRF-CEM
[7] = tested on: COLO 205
[8] = tested on: DLD-1
[9] = tested on: DMS-114
[10] = tested on: DMS-273
[11] = tested on: EKVX
[12] = tested on: HCT-116
[13] = tested on: HCT-15
[14] = tested on: HL-60
[15] = tested on: HOP-18
[16] = tested on: HOP-62
[17] = tested on: HOP-92
[18] = tested on: HT-29
[19] = tested on: IGROV-1
[20] = tested on: K562
[21] = tested on: KM-20L2
[22] = tested on: KM12
[23] = tested on: LOX IMVI
[24] = tested on: LXFL 529
[25] = tested on: M14
[26] = tested on: M19-MEL
[27] = tested on: MOLT-4
[28] = tested on: Malme-3M
[29] = tested on: NCI-H226
[30] = tested on: NCI-H23
[31] = tested on: NCI-H460
[32] = tested on: NCI-H522
[33] = tested on: OVCAR-4
[34] = tested on: OVCAR-5
[35] = tested on: OVCAR-8
[36] = tested on: RPMI-8226
[37] = tested on: RXF 393
[38] = tested on: RXF 631
[39] = tested on: SF-268
[40] = tested on: SF-295
[41] = tested on: SF-539
[42] = tested on: SK-MEL-28
[43] = tested on: SK-MEL-2
[44] = tested on: SK-MEL-5
[45] = tested on: SK-OV-3
[46] = tested on: SN12C
[47] = tested on: SNB-19
[48] = tested on: SNB-75
[49] = tested on: SNB-78
[50] = tested on: SW-620
[51] = tested on: TK-10
[52] = tested on: U-251
[53] = tested on: UACC-257
[54] = tested on: UACC-62
[55] = tested on: UO-31
[56] = tested on: XF498
[57] = tested on: HCC 2998
[58] = tested on: OVCAR-3
[59] = tested on: SR

`CCN(CC)Cc1cc(Nc2c3ccccc3nc3c4ccccc4n(C)c23)ccc1O` was tested, and the GI50 [1] was 3.76 µM (inactive), the GI50 [2] was 13.7 µM (inactive) and the GI50 [3] was 12.9 µM (inactive). For the same compound, the GI50 [4] was 11.2 µM (inactive), the GI50 [5] was 11.2 µM (inactive) and the GI50 [6] was 2.05 µM (inactive). The GI50 [7] was 4.73 µM (inactive), the GI50 [8] was 6.76 µM (inactive) and the GI50 [9] was 6.37 µM (inactive). For the same compound, the GI50 [10] was 5.64 µM (inactive), the GI50 [11] was 15.6 µM (inactive) and the GI50 [12] was 7.16 µM (inactive). For the same compound, the GI50 [13] was 8.85 µM, the GI50 [14] was 3.46 µM (inactive) and the GI50 [15] was 14.1 µM (inactive). The GI50 [16] was 12 µM (inactive), the GI50 [17] was 5.9 µM (inactive) and the GI50 [18] was 5.32 µM (inactive). The GI50 [19] was 15.4 µM (inactive), the GI50 [20] was 2.51 µM (inactive) and the GI50 [21] was 5.45 µM (inactive). For the same compound, the GI50 [22] was 7.73 µM (inactive), the GI50 [23] was 2.83 µM (inactive) and the GI50 [24] was 4.8 µM (inactive). For the same compound, the GI50 [25] was 1.92 µM (inactive), the GI50 [26] was 7.85 µM (inactive) and the GI50 [27] was 2.77 µM (inactive). The GI50 [28] was 13.7 µM (inactive), the GI50 [29] was 29.2 µM (inactive) and the GI50 [30] was 15.1 µM (inactive). For the same compound, the GI50 [31] was 7.91 µM (inactive), the GI50 [32] was 2.58 µM (inactive) and the GI50 [33] was 14 µM (inactive). For the same compound, the GI50 [34] was 10.1 µM (inactive), the GI50 [35] was 9.25 µM (inactive) and the GI50 [36] was 3.67 µM (inactive). The GI50 [37] was 11.3 µM (inactive), the GI50 [38] was 3.18 µM (inactive) and the GI50 [39] was 16.6 µM (inactive). The GI50 [40] was 10 µM (inactive), the GI50 [41] was 3.87 µM (inactive) and the GI50 [42] was 4.43 µM (inactive). For the same compound, the GI50 [43] was 20.7 µM (inactive), the GI50 [44] was 2.61 µM (inactive) and the GI50 [45] was 16.7 µM (inactive). The GI50 [46] was 13.9 µM (inactive), the GI50 [47] was 16.7 µM (inactive) and the GI50 [48] was 13.6 µM (inactive). For the same compound, the GI50 [49] was 18.6 µM (inactive), the GI50 [50] was 6.07 µM (inactive) and the GI50 [51] was 13.9 µM (inactive). The GI50 [52] was 10.8 µM (inactive), the GI50 [53] was 10.4 µM (inactive) and the GI50 [54] was 6.9 µM (inactive). For the same compound, the GI50 [55] was 9.95 µM (inactive) and the GI50 [56] was 4.84 µM (inactive).

`COC(=O)[C@@]12C=CC(=O)[C@H]3C[C@@H](C(C(C)C)C1)[C@]32OC` (stereo partly drawn) was tested, and the GI50 [1] was > 100 µM (inactive), the GI50 [2] was > 100 µM (inactive) and the GI50 [3] was > 100 µM (inactive). For the same compound, the GI50 [4] was > 100 µM (inactive), the GI50 [5] was > 100 µM (inactive) and the GI50 [6] was > 100 µM (inactive). For the same compound, the GI50 [7] was > 100 µM (inactive), the GI50 [8] was > 100 µM (inactive) and the GI50 [9] was > 100 µM (inactive). For the same compound, the GI50 [10] was > 100 µM (inactive), the GI50 [11] was > 100 µM (inactive) and the GI50 [57] was > 100 µM (inactive). For the same compound, the GI50 [12] was > 100 µM (inactive), the GI50 [13] was over 100 µM and the GI50 [14] was > 100 µM (inactive). For the same compound, the GI50 [15] was > 100 µM (inactive), the GI50 [16] was > 100 µM (inactive) and the GI50 [17] was > 100 µM (inactive). The GI50 [18] was > 100 µM (inactive), the GI50 [19] was > 100 µM (inactive) and the GI50 [20] was > 100 µM (inactive). For the same compound, the GI50 [21] was > 100 µM (inactive), the GI50 [22] was > 100 µM (inactive) and the GI50 [24] was > 100 µM (inactive). For the same compound, the GI50 [25] was > 100 µM (inactive), the GI50 [26] was > 100 µM (inactive) and the GI50 [27] was > 100 µM (inactive). The GI50 [28] was > 100 µM (inactive), the GI50 [30] was > 100 µM (inactive) and the GI50 [31] was > 100 µM (inactive). The GI50 [58] was > 100 µM (inactive), the GI50 [33] was > 100 µM (inactive) and the GI50 [34] was > 100 µM (inactive). The GI50 [35] was > 100 µM (inactive), the GI50 [36] was > 100 µM (inactive) and the GI50 [37] was > 100 µM (inactive). The GI50 [38] was > 100 µM (inactive), the GI50 [39] was > 100 µM (inactive) and the GI50 [40] was > 100 µM (inactive). For the same compound, the GI50 [41] was > 100 µM (inactive), the GI50 [42] was > 100 µM (inactive) and the GI50 [43] was > 100 µM (inactive). For the same compound, the GI50 [44] was > 100 µM (inactive), the GI50 [45] was > 100 µM (inactive) and the GI50 [46] was > 100 µM (inactive). The GI50 [47] was > 100 µM (inactive), the GI50 [48] was > 100 µM (inactive) and the GI50 [49] was > 100 µM (inactive). For the same compound, the GI50 [50] was > 100 µM (inactive), the GI50 [51] was > 100 µM (inactive) and the GI50 [52] was > 100 µM (inactive). The GI50 [53] was > 100 µM (inactive), the GI50 [54] was > 100 µM (inactive) and the GI50 [56] was > 100 µM (inactive).

In the case of `COCCOc1cc(C)cc(/C=C(C)/C=C/C2=C(C)CCCC2(C)C)n1`, the GI50 [1] is reported as > 100 µM (inactive), the GI50 [2] is reported as > 100 µM (inactive) and the GI50 [3] is reported as 51.9 µM (inactive). The GI50 [4] was 84.3 µM (inactive), the GI50 [5] was > 100 µM (inactive) and the GI50 [7] was 54 µM (inactive). The GI50 [8] was > 100 µM (inactive), the GI50 [9] was 28.1 µM (inactive) and the GI50 [10] was 48.5 µM (inactive). For the same compound, the GI50 [11] was 38.2 µM (inactive), the GI50 [12] was 30.7 µM (inactive) and the GI50 [15] was > 100 µM (inactive). For the same compound, the GI50 [16] was > 100 µM (inactive), the GI50 [17] was 38.6 µM (inactive) and the GI50 [18] was 28.6 µM (inactive). The GI50 [19] was > 100 µM (inactive), the GI50 [22] was 70.6 µM (inactive) and the GI50 [23] was 54.8 µM (inactive). The GI50 [24] was 45.8 µM (inactive), the GI50 [25] was 94 µM (inactive) and the GI50 [26] was 32.8 µM (inactive). For the same compound, the GI50 [27] was 13.3 µM (inactive), the GI50 [28] was 38.3 µM (inactive) and the GI50 [29] was 32.1 µM (inactive). For the same compound, the GI50 [30] was 58.9 µM (inactive), the GI50 [31] was 88.7 µM (inactive) and the GI50 [32] was 28.9 µM (inactive). For the same compound, the GI50 [58] was > 100 µM (inactive), the GI50 [33] was 59.2 µM (inactive) and the GI50 [34] was > 100 µM (inactive). For the same compound, the GI50 [35] was 60.7 µM (inactive), the GI50 [36] was 14.8 µM (inactive) and the GI50 [37] was 39.7 µM (inactive). For the same compound, the GI50 [38] was 59.8 µM (inactive), the GI50 [39] was > 100 µM (inactive) and the GI50 [40] was > 100 µM (inactive). For the same compound, the GI50 [41] was > 100 µM (inactive), the GI50 [42] was > 100 µM (inactive) and the GI50 [43] was 49 µM (inactive). The GI50 [44] was 17.3 µM (inactive), the GI50 [45] was > 100 µM (inactive) and the GI50 [46] was > 100 µM (inactive). For the same compound, the GI50 [47] was > 100 µM (inactive), the GI50 [48] was > 100 µM (inactive) and the GI50 [49] was 81.3 µM (inactive). The GI50 [59] was 16.5 µM (inactive), the GI50 [50] was 59.7 µM (inactive) and the GI50 [51] was > 100 µM (inactive). For the same compound, the GI50 [52] was 62.4 µM (inactive), the GI50 [53] was 33.2 µM (inactive) and the GI50 [54] was > 100 µM (inactive). For the same compound, the GI50 [55] was > 100 µM (inactive) and the GI50 [56] was 43.6 µM (inactive).
